Source: patent US20230381142A1, “ANTILEISHMANIAL COMPOUNDS, COMPOSITIONS AND USE THEREOF” (TRUSTEES OF BOSTON UNIVERSITY, priority 2022, published 2023)
Read-outs that look alike come from different tables or passages of the source.

Legend:
[1] = system: L. donovani intracellular amastigotes infecting THP-1 macrophages; experiment: GSK intramacrophage L. donovani assay (LD AMMAC, inMac; Assay Conditions C); type: cell-based; conditions: Leishmania donovani
Protocol: Assay Conditions C: The intramacrophage Leishmania donovani activity assay was performed as described in Antimicrob Agents Chemother (2013) 57(7):2913-22.
(§1) The intramacrophage Leishmania donovani activity assay (LD AMMAC) at GlaxoSmithKline was performed as described.
(§2) Given the literature precedents described above and the apparent narrow tolerance for R^3 substitutions observed in the primary screen compounds, a thorough and methodical assessment was undertaken of tolerated groups at the three points of diversity (R^1/R^2/R^3) for the core. At this stage of the project, all analogues were assessed using a battery of assays performed in-house at GlaxoSmithKline. For antileishmanial activity, GSK's inMac assay was utilized. This assay provides two readouts of compound potency: average number of intracellular amastigotes per infected cell (AMMAC) EC50, percentage of infected cells per well (INFCELL) EC50, as well as a toxicity output derived from the number of host cells (MAC EC50). In addition, compounds were assessed for toxicity against HepG2 cells (HEPG2 EC50). Here, AMMAC EC50 values were focused on for relative potency assessments. […] It should be noted that for all compounds assessed in this project, the measured toxicity against THP-1 macrophages either equaled or exceeded that of HepG2 hepatocytes, therefore the MAC SI is used here as the more conservative estimate of therapeutic index.

[2] = GSK inMac assay, host cell toxicity readout (LD MAC); type: cell-based, human; conditions: human
Protocol: as §1, §2

[3] = THP-1 cells, values marked c, read-out: L. donovani amastigotes EC50 (THP-1 cells)
[4] = footnote c, read-out: THP-1 Host Cell CC50
[5] = values marked c: THP-1 cells, read-out: L. donovani amastigotes EC50 (μM, THP-1 or B10R cells)

Compound | EC50 [1, 3] [µM] | CC50 [2, 4] [µM] | EC50 [1, 5] [µM] | CC50 ([2]; host THP-1 cells) [µM]
COc1ccc(N2C(=O)c3[nH]nc(CC(C)C)c3C2c2ccc(OC)nc2)cc1 (stereo not shown) [CMLD011027] | > 50 | > 50 | – | –
COc1ccc(N2C(=O)c3[nH]nc(CC(C)C)c3C2c2cc(F)nc(F)c2)cc1 (stereo not shown) [CMLD011028] | > 50 | > 50 | – | –
CC(C)Cc1n[nH]c2c1C(c1ccc(F)cc1)N(c1ccc(O)cc1)C2=O (stereo not shown) [CMLD011029] | 5 | 39.8 | – | –
CC(C)Cc1n[nH]c2c1C(c1ccc(F)cc1)N(C1CCOCC1)C2=O (stereo not shown) [CMLD011030] | 31.6 | > 50 | – | –
CC(C)Cc1n[nH]c2c1C(c1ccc(F)cc1)N(c1ccc(C(=O)O)cc1)C2=O (stereo not shown) [CMLD011031] | > 50 | > 50 | – | –
COc1ccc(N2C(=O)c3[nH]nc(CC(C)C)c3C2c2ccc(C(=O)O)cc2)cc1 (stereo not shown) [CMLD011032] | > 50 | > 50 | – | –
COC(=O)c1ccc(N2C(=O)c3[nH]nc(CC(C)C)c3C2c2ccc(F)cc2)cc1 (stereo not shown) [CMLD011033] | 1.6 | 31.6 | – | –
COC(=O)c1ccc(C2c3c(CC(C)C)n[nH]c3C(=O)N2c2ccc(OC)cc2)cc1 (stereo not shown) [CMLD011034] | 25.1 | 39.8 | – | –
CCC(C)(COC(C)=O)CN1C(=O)c2[nH]nc(CC(C)C)c2C1c1ccc(F)cc1 (stereo not shown) [CMLD011035] | 5 | 25.1 | – | –
CO[C@H]1CC[C@H](N2C(=O)c3[nH]nc(CC(C)C)c3C2c2ccc(F)cc2)CC1 (stereo partly shown) [CMLD011036] | 25.1 | > 50 | – | –
CC(=O)OCC(CO)N1C(=O)c2[nH]nc(CC(C)C)c2C1c1ccc(F)cc1 (stereo not shown) [CMLD011037] | – | – | ≥ 50.1 | ≥ 50.1
CC(C)Cc1n[nH]c2c1C(c1ccc(F)cc1)N(CC(C)(CO)CO)C2=O (stereo not shown) [CMLD011038] | – | – | ≥ 50.1 | ≥ 50.1
COc1ccc(OC)c(N2C(=O)c3[nH]nc(CC(C)C)c3C2c2ccc(F)cc2)c1 (stereo not shown) [CMLD011040] | 25.1 | ≥ 50.1 | – | –
CC(C)Cc1n[nH]c2c1C(C1CCCCC1)N(c1ccc(C(C)(C)C)cc1)C2=O (stereo not shown) [CMLD011042] | 2.5 | ≥ 50.1 | – | –
CC(C)Cc1n[nH]c2c1C(C1CCCCC1)N(c1ccc3c(c1)OCO3)C2=O (stereo not shown) [CMLD011043] | 5 | 15.8 | – | –
COc1cccc(N2C(=O)c3[nH]nc(CC(C)C)c3C2C2CCCCC2)c1 (stereo not shown) [CMLD011044] | – | – | 6.3 | ≥ 50.1
COc1ccccc1N1C(=O)c2[nH]nc(CC(C)C)c2C1C1CCCCC1 (stereo not shown) [CMLD011045] | – | – | 10 | 25.1
COc1ccccc1N1C(=O)c2[nH]nc(CC(C)C)c2C1c1ccc(F)cc1 (stereo not shown) [CMLD011046] | 20 | > 50 | – | –
CC(C)Cc1n[nH]c2c1C(c1ccccc1Cl)N(c1ccc(C(C)(C)C)cc1)C2=O (stereo not shown) [CMLD011047] | – | – | 3.2 | 7.9
COc1cc(N2C(=O)c3[nH]nc(CC(C)C)c3C2c2ccc(F)cc2)ccc1F (stereo not shown) [CMLD011073] | – | – | 20 | 15.8
COc1ccc(N2C(=O)c3[nH]nc(CC(C)C)c3C2c2nccs2)cc1 (stereo not shown) [CMLD011075] | 20 | > 50 | – | –
COc1ccc(N2C(=O)c3[nH]nc(CC(C)C)c3[C@H]2c2cccc(C(F)(F)F)c2)cn1 [CMLD011076] | – | – | 10 | 15.8
COc1cc(N2C(=O)c3[nH]nc(CC(C)C)c3C2c2ccccc2Br)cc(OC)c1OC (stereo not shown) [CMLD011077] | – | – | 6.3 | 6.3
CC(C)Cc1n[nH]c2c1C(c1ccccc1Cl)N(c1ccc(F)cc1)C2=O (stereo not shown) [CMLD011078] | – | – | 4 | 20
COc1ccc(N2C(=O)c3[nH]nc(CC(C)C)c3C2c2ccc(F)cc2F)cc1 (stereo not shown) [CMLD011079] | 2 | 25.1 | – | –

Compound | EC50 [1, 3] [µM] | CC50 [2, 4] [µM] | EC50 [1, 5] [µM] | CC50 ([2]; host THP-1 cells) [µM]
COC(=O)c1ccc(N2C(=O)c3[nH]nc(CC(C)C)c3C2c2cccc(C(F)(F)F)c2)cc1 (stereo not shown) [CMLD011080] | – | – | 10 | 39.8
CC(C)Cc1n[nH]c2c1C(c1cccc(C(F)(F)F)c1)N(c1ccc(Br)cc1)C2=O (stereo not shown) [CMLD011081] | 31.6 | 31.6 | – | –
CC(C)Cc1n[nH]c2c1C(C1CCCCC1)N(c1ccc(Br)cc1)C2=O (stereo not shown) [CMLD011087] | – | – | 6.3 | 7.9
COc1ccc(N2C(=O)c3[nH]nc(CC(C)C)c3C2c2cccc(OC)c2)cc1 (stereo not shown) [CMLD011088] | 4 | 20 | – | –
COc1ccc(N2C(=O)c3[nH]nc(CC(C)C)c3C2C2CCCCC2)cc1F (stereo not shown) [CMLD011090] | – | – | 5 | ≥ 50.1
Cc1ccc(CN2C(=O)c3[nH]nc(CC(C)C)c3C2c2ccc(F)cc2)o1 (stereo not shown) [CMLD011092] | 15.9 | 39.8 | – | –
COc1ccc(N2C(=O)c3[nH]nc(-c4ccc(Cl)cc4Cl)c3C2c2ccc(F)cc2)cc1 (stereo not shown) [CMLD011093] | 20 | > 50 | – | –
COC(=O)c1ccc(N2C(=O)c3[nH]nc(CC(C)C)c3C2C2CCCCC2)cc1 (stereo not shown) [CMLD011094] | 39.8 | > 50 | – | –
CC(C)Cc1n[nH]c2c1C(c1ccc(F)cc1)N(c1ccccn1)C2=O (stereo not shown) [CMLD011095] | 20 | > 50 | – | –
COc1ccc(N2C(=O)c3[nH]nc(CC(C)C)c3C2c2ccc(Cl)cc2)cc1 (stereo not shown) [CMLD011096] | 4 | 15.9 | – | –
CC(C)Cc1n[nH]c2c1C(c1ccc(F)cc1)N(c1ccc(F)cc1F)C2=O (stereo not shown) [CMLD011097] | 12.6 | 39.8 | – | –
CC(C)Cc1n[nH]c2c1C(c1ccc(F)cc1)N(c1cccnc1)C2=O (stereo not shown) [CMLD011098] | 25.1 | > 50 | – | –
COc1ccc(N2C(=O)c3[nH]nc(CC(C)C)c3C2c2cccc(Cl)c2)cc1 (stereo not shown) [CMLD011099] | 7.9 | 39.8 | – | –
COc1ccc(N2C(=O)c3[nH]nc(CC(C)C)c3C2c2ccccc2F)cc1 (stereo not shown) [CMLD011102] | 3.2 | 31.6 | – | –
COc1ccc(N2C(=O)c3[nH]nc(CC(C)C)c3C2c2ccccc2Cl)c(OC)c1 (stereo not shown) [CMLD011103] | 10 | 20 | – | –
COc1ccc(N2C(=O)c3[nH]nc(CC(C)C)c3C2c2ccsc2)cc1 (stereo not shown) [CMLD011104] | 6.3 | > 50 | – | –
CC(C)Cc1n[nH]c2c1C(c1ccc(F)cc1)N(c1ccc3c(c1)OC(F)(F)O3)C2=O (stereo not shown) [CMLD011105] | 2.5 | 12.6 | – | –
COc1ccc(N2C(=O)c3[nH]nc(CC(C)C)c3C2c2cccc(C(F)(F)F)c2)cc1F (stereo not shown) [CMLD011106] | 6.3 | 25.1 | – | –
COc1ccc(N2C(=O)c3[nH]nc(CC(C)C)c3C2c2ccccc2Br)c(OC)c1 (stereo not shown) [CMLD011109] | 6.3 | 15.8 | – | –
COc1ccc(N2C(=O)c3[nH]nc(CC(C)C)c3C2c2cccs2)cc1 (stereo not shown) [CMLD011110] | 7.9 | > 50 | – | –
CC(C)Cc1n[nH]c2c1C(c1ccccc1Br)N(c1ccc(F)cc1)C2=O (stereo not shown) [CMLD011111] | 4 | 15.8 | – | –
COc1ccccc1N1C(=O)c2[nH]nc(CC(C)C)c2C1c1ccccc1Br (stereo not shown) [CMLD011112] | 12.6 | 25.1 | – | –
CC(C)Cc1n[nH]c2c1C(c1ccc(F)cc1)N(c1ccc(F)cc1)C2=O (stereo not shown) [CMLD011113] | 6.3 | 25.1 | – | –
COc1ccc(N2C(=O)c3[nH]nc(CC(C)C)c3C2c2cccc(C(F)(F)F)c2)c(OC)c1 (stereo not shown) [CMLD011115] | 12.6 | 20 | – | –
COc1cc(N2C(=O)c3[nH]nc(CC(C)C)c3C2c2ccccc2Cl)cc(OC)c1OC (stereo not shown) [CMLD011116] | 5 | 6.3 | – | –
